According to ChEMBL document CHEMBL1201862, “PubChem BioAssay data set” (2004):
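Each compound was tested at five concentrations against cells in 96-well plates for 48 hours. GI50 = concentration required for 50% inhibition of growth.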 Activity calls are given as the source filed them. No stated cut-off is given here; in the data, active = GI50 up to about 1.1 µM and inactive = higher.

Columns and labels:
Experiment in all cases: NCI tumour cell line growth inhibition, 48 h
OVCAR-5 = test system: OVCAR-5
SK-MEL-5 = test system: SK-MEL-5
SF-295 = test system: SF-295
HOP-62 = test system: HOP-62
UACC-257 = test system: UACC-257
IGROV-1 = test system: IGROV-1
KM-20L2 = test system: KM-20L2
HCT-116 = test system: HCT-116
NCI-H23 = test system: NCI-H23
U-251 = test system: U-251
CAKI-1 = test system: CAKI-1
K562 = test system: K562
SK-OV-3 = test system: SK-OV-3
CCRF-CEM = test system: CCRF-CEM
HL-60 = test system: HL-60
RXF 393 = test system: RXF 393
HOP-92 = test system: HOP-92
NCI/ADR-RES = test system: NCI/ADR-RES
MDA-MB-435 = test system: MDA-MB-435
T47D = test system: T47D

Row | SMILES | GI50 (OVCAR-5) | GI50 (SK-MEL-5) | GI50 (SF-295) | GI50 (HOP-62) | GI50 (UACC-257) | GI50 (IGROV-1) | GI50 (KM-20L2) | GI50 (HCT-116) | GI50 (NCI-H23) | GI50 (U-251) | GI50 (CAKI-1) | GI50 (K562) | GI50 (SK-OV-3) | GI50 (CCRF-CEM) | GI50 (HL-60) | GI50 (RXF 393) | GI50 (HOP-92) | GI50 (NCI/ADR-RES) | GI50 (MDA-MB-435) | GI50 (T47D)
1 | COc1cc2cccc(/N=C/c3c(Br)ccc(OC)c3OC(C)C)c2cc1OC | > 100 µM (inactive) | 55.7 µM (inactive) | 53.6 µM (inactive) | 53.2 µM (inactive) | 35.2 µM (inactive) | 59.4 µM (inactive) | > 100 µM (inactive) | 31 µM (inactive) | 50.1 µM (inactive) | 32.8 µM (inactive) | 27.9 µM (inactive) | 27 µM (inactive) | > 100 µM (inactive) | 25.7 µM (inactive) |  |  |  |  |  | 
2 | CC1=CC(C)(c2c[nH]c3ccccc23)CC(C)(C)c2c1[nH]c1ccccc21 (stereo unspecified) | 18 µM (inactive) |  | 14.5 µM (inactive) | 22.8 µM (inactive) | 20.3 µM (inactive) | 16.2 µM (inactive) | 14.8 µM (inactive) | 11.9 µM (inactive) | 14.4 µM (inactive) | 15.9 µM (inactive) |  | 11.9 µM (inactive) | 28.6 µM (inactive) | 9.55 µM (inactive) | 6.46 µM (inactive) | 12.4 µM (inactive) |  |  |  | 
3 | COc1cc(Nc2nc3cc(C)ccc3nc2-c2ccccc2)cc(OC)c1OC | > 100 µM (inactive) | 19.2 µM (inactive) | 20.9 µM (inactive) |  | 47.5 µM (inactive) | 63.8 µM (inactive) | 30.5 µM (inactive) | 19.9 µM (inactive) | 22.8 µM (inactive) | 35 µM (inactive) | 27.5 µM (inactive) | 23.4 µM (inactive) | > 100 µM (inactive) | 29.8 µM (inactive) | 22.5 µM (inactive) |  | 23.2 µM (inactive) |  |  | 
4 | C/C(=C/c1ccccc1)CN(C(=O)/C=C\Sc1ccccc1)C(C)(C)C | > 100 µM (inactive) | 60.8 µM (inactive) | > 100 µM (inactive) | > 100 µM (inactive) | 48.3 µM (inactive) | > 100 µM (inactive) |  | 24.8 µM (inactive) | > 48 µM (inactive) | > 84.9 µM (inactive) | > 100 µM (inactive) | 27.2 µM (inactive) | > 100 µM (inactive) | 63.1 µM (inactive) | 28 µM (inactive) | > 100 µM (inactive) | 4.85 µM (inactive) | > 34.6 µM (inactive) | > 100 µM (inactive) | > 31.2 µM (inactive)
5 | COc1ccc(/C=C(\NC(=O)c2ccccc2)c2nc3ccccc3[nH]2)cc1 | 29 µM (inactive) | 14.8 µM (inactive) |  | 46.2 µM (inactive) | 23.8 µM (inactive) | 30.5 µM (inactive) | 38.5 µM (inactive) | 35.2 µM (inactive) | 19.1 µM (inactive) | 30.3 µM (inactive) | 36.9 µM (inactive) | 34.9 µM (inactive) | 45.1 µM (inactive) | 42.4 µM (inactive) |  |  | 26.9 µM (inactive) |  |  | 
6 | COc1cccc2c1C(=O)c1c(O)c3c(c(O)c1C2=O)C[C@@](O)(/C(C)=N/NC(=O)c1ccc(Cl)c(Cl)c1)C[C@@H]3OC1CC(N)C(O)C(C)O1 (stereo partly specified) | 0.374 µM (active) | 0.116 µM (active) | 0.078 µM (active) | 0.147 µM (active) | 0.188 µM (active) | 0.462 µM (active) |  | 0.0391 µM (active) | 0.0592 µM (active) | 0.0589 µM (active) | 0.0646 µM (active) | 0.197 µM (active) | 0.44 µM (active) | 0.0299 µM (active) | 0.0348 µM (active) | 1.15 µM (inactive) | 0.424 µM (active) | 0.532 µM (active) | 0.27 µM (active) | 0.372 µM (active)
7 | O=C(O)c1ccc(Nc2ccnc3cc(Cl)ccc23)cc1O | > 100 µM (inactive) | > 100 µM (inactive) | > 100 µM (inactive) | 45.7 µM (inactive) | > 100 µM (inactive) | > 100 µM (inactive) |  | > 100 µM (inactive) | > 100 µM (inactive) | 95.1 µM (inactive) | > 100 µM (inactive) | > 100 µM (inactive) | > 100 µM (inactive) | > 100 µM (inactive) | > 100 µM (inactive) | > 100 µM (inactive) | > 100 µM (inactive) | > 100 µM (inactive) | > 100 µM (inactive) | > 100 µM (inactive)
8 | C[C@]12CC/C(=N\OC(=O)Nc3ccccc3)C=C1CC[C@@H]1C2CC[C@@]2(C)C1CC[C@@H]2OC(=O)Nc1ccccc1 (stereo partly specified) | > 100 µM (inactive) | 23.1 µM (inactive) | 47.9 µM (inactive) |  |  | > 100 µM (inactive) | > 100 µM (inactive) | > 100 µM (inactive) | 73.3 µM (inactive) | > 100 µM (inactive) | 3.27 µM (inactive) | 17.7 µM (inactive) | > 100 µM (inactive) | > 100 µM (inactive) | 8.79 µM (inactive) |  | > 100 µM (inactive) |  |  | 
9 | CC1SCCc2nc3ccccc3n21 (stereo unspecified) | > 100 µM (inactive) | > 100 µM (inactive) | > 100 µM (inactive) | > 100 µM (inactive) | > 100 µM (inactive) | > 100 µM (inactive) |  | > 100 µM (inactive) | > 100 µM (inactive) | > 100 µM (inactive) | > 100 µM (inactive) | > 100 µM (inactive) | > 100 µM (inactive) | > 100 µM (inactive) | > 100 µM (inactive) | > 100 µM (inactive) | > 100 µM (inactive) | > 100 µM (inactive) | > 100 µM (inactive) | > 100 µM (inactive)
10 | COC(=O)[C@@H]1[C@H]2CC[C@]3(C)[C@@H](OC(C)=O)CC[C@H]3[C@@H]2CC[C@H]1C1(C)SCCS1 | 22.8 µM (inactive) | 8.77 µM (inactive) | 24.8 µM (inactive) | 23.1 µM (inactive) | 25.2 µM (inactive) | 49.2 µM (inactive) |  | 19.6 µM (inactive) | 37.2 µM (inactive) | 23.6 µM (inactive) | 41.6 µM (inactive) | 36.1 µM (inactive) | 53.6 µM (inactive) | 36.9 µM (inactive) | 18.2 µM (inactive) | 20.5 µM (inactive) | 18.7 µM (inactive) | 20.4 µM (inactive) | 16.3 µM (inactive) | 20.4 µM (inactive)
11 | Clc1ccc(-c2nc3cc(C45CC6CC(CC(C6)C4)C5)ccc3[nH]2)cc1 | > 100 µM (inactive) | 7.18 µM (inactive) | 57.7 µM (inactive) | 37.8 µM (inactive) | 10.7 µM (inactive) | > 100 µM (inactive) |  | 22.5 µM (inactive) | 52.4 µM (inactive) | 20.1 µM (inactive) | > 59.3 µM (inactive) | < 0.01 µM (active) | > 100 µM (inactive) | 8.3 µM (inactive) | 2.07 µM (inactive) | 72.6 µM (inactive) | 17.7 µM (inactive) | 20.5 µM (inactive) | 36.1 µM (inactive) | 24.2 µM (inactive)
12 | NC(=O)C12CC3CC(CC(Br)(C3)C1)C2 | > 100 µM (inactive) | > 100 µM (inactive) | > 100 µM (inactive) | > 100 µM (inactive) | > 100 µM (inactive) | > 100 µM (inactive) | > 100 µM (inactive) | > 100 µM (inactive) | > 100 µM (inactive) | > 100 µM (inactive) | > 100 µM (inactive) |  | > 100 µM (inactive) | > 100 µM (inactive) | > 100 µM (inactive) |  | > 100 µM (inactive) |  |  | 
13 | NC[C@H]1Nc2ccccc2[C@@H](O)C1O (stereo partly specified) | > 100 µM (inactive) | > 100 µM (inactive) | > 100 µM (inactive) | > 100 µM (inactive) | > 100 µM (inactive) | > 100 µM (inactive) |  | > 100 µM (inactive) | > 100 µM (inactive) | > 100 µM (inactive) | > 100 µM (inactive) | > 100 µM (inactive) | > 100 µM (inactive) | > 100 µM (inactive) | > 100 µM (inactive) | > 100 µM (inactive) | > 100 µM (inactive) | > 100 µM (inactive) | > 100 µM (inactive) | > 100 µM (inactive)
14 | O=C(N[C@H]1CCC[C@H]1C(=O)Nc1ccc(C(F)(F)F)cc1)OCc1ccccc1 | > 100 µM (inactive) | > 100 µM (inactive) | > 100 µM (inactive) | > 100 µM (inactive) | > 100 µM (inactive) | > 100 µM (inactive) |  | > 100 µM (inactive) | > 100 µM (inactive) | > 100 µM (inactive) | > 100 µM (inactive) | > 100 µM (inactive) | > 100 µM (inactive) | > 100 µM (inactive) | > 100 µM (inactive) | > 100 µM (inactive) | > 100 µM (inactive) | > 100 µM (inactive) | > 100 µM (inactive) | > 100 µM (inactive)
15 | CC(C)OC(=O)c1ccc(NCc2cc(O)ccc2O)cc1Cl | 8.43 µM (inactive) | 2.73 µM (inactive) | 12.2 µM (inactive) | 18.9 µM (inactive) | 11.4 µM (inactive) | 2.31 µM (inactive) |  | 8.87 µM (inactive) | 4.39 µM (inactive) | 3.95 µM (inactive) | 0.861 µM (active) | 0.501 µM (active) | 7.21 µM (inactive) | 0.258 µM (active) | 0.364 µM (active) | 2.61 µM (inactive) | 1.51 µM (inactive) | 2.78 µM (inactive) | 2.15 µM (inactive) | 1.56 µM (inactive)
16 | O=C(c1ccccc1)N1C(=S)N(c2ccccn2)C(=N/c2ccccc2)/C1=N\c1ccccc1 | 11.2 µM (inactive) | 19.1 µM (inactive) | 25.5 µM (inactive) | 27.4 µM (inactive) | 23 µM (inactive) | 13 µM (inactive) |  | 12.8 µM (inactive) | 6.4 µM (inactive) | 8.11 µM (inactive) | 10.5 µM (inactive) | 7.18 µM (inactive) | 43.6 µM (inactive) | 2.57 µM (inactive) | 3.66 µM (inactive) | 5.11 µM (inactive) | 6.67 µM (inactive) | 10.5 µM (inactive) | 19.6 µM (inactive) | 15.1 µM (inactive)
